Assays:
Assay in all cases: relative viability (nuclei count vs DMSO), 5 days (fraction); higher = more cells survive
Alisertib + Navitoclax = compound: COc1cc(Nc2ncc3c(n2)-c2ccc(Cl)cc2C(c2c(F)cccc2OC)=NC3)ccc1C(=O)O [Alisertib] + CC1(C)CCC(c2ccc(Cl)cc2)=C(CN2CCN(c3ccc(C(=O)NS(=O)(=O)c4ccc(N[C@H](CCN5CCOCC5)CSc5ccccc5)c(S(=O)(=O)C(F)(F)F)c4)cc3)CC2)C1 [Navitoclax] (partner 0.5 µM)
How it was run: (§1)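 Values are medians from duplicate plates. Each reflects relative viability, defined as the nuclei count of treated wells over that of vehicle wells. Lung cancer cell lines in 1536-well plates were pin-tool dosed one day after seeding with one drug alone or with a fixed anchor-drug dose plus five library-drug doses (not always all listed) in √10 steps, then fixed, stained and imaged at 4× after 5 days.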

Alisertib + Tozasertib = compound: COc1cc(Nc2ncc3c(n2)-c2ccc(Cl)cc2C(c2c(F)cccc2OC)=NC3)ccc1C(=O)O [Alisertib] + Cc1cc(Nc2cc(N3CCN(C)CC3)nc(Sc3ccc(NC(=O)C4CC4)cc3)n2)n[nH]1 [Tozasertib] (partner 0.1 µM)
How it was run: as §1

Alisertib + Vorinostat = compound: COc1cc(Nc2ncc3c(n2)-c2ccc(Cl)cc2C(c2c(F)cccc2OC)=NC3)ccc1C(=O)O [Alisertib] + O=C(CCCCCCC(=O)Nc1ccccc1)NO [Vorinostat] (partner 1 µM)
How it was run: as §1

Alisertib + Crizotinib = compound: COc1cc(Nc2ncc3c(n2)-c2ccc(Cl)cc2C(c2c(F)cccc2OC)=NC3)ccc1C(=O)O [Alisertib] + C[C@@H](Oc1cc(-c2cnn(C3CCNCC3)c2)cnc1N)c1c(Cl)ccc(F)c1Cl [Crizotinib] (partner 1 µM)
How it was run: as §1

Row | Cell Line | relative viability (Alisertib + Navitoclax; first compound 0.005 µM) | relative viability (Alisertib + Navitoclax; first compound 0.01581 µM) | relative viability (Alisertib + Navitoclax; first compound 0.05 µM) | relative viability (Alisertib + Navitoclax; first compound 0.1581 µM) | relative viability (Alisertib + Navitoclax; first compound 0.5 µM) | relative viability (Alisertib + Tozasertib; first compound 0.005 µM) | relative viability (Alisertib + Tozasertib; first compound 0.01581 µM) | relative viability (Alisertib + Tozasertib; first compound 0.05 µM) | relative viability (Alisertib + Tozasertib; first compound 0.1581 µM) | relative viability (Alisertib + Tozasertib; first compound 0.5 µM) | relative viability (Alisertib + Vorinostat; first compound 0.005 µM) | relative viability (Alisertib + Vorinostat; first compound 0.01581 µM) | relative viability (Alisertib + Vorinostat; first compound 0.05 µM) | relative viability (Alisertib + Vorinostat; first compound 0.1581 µM) | relative viability (Alisertib + Vorinostat; first compound 0.5 µM) | relative viability (Alisertib + Crizotinib; first compound 0.005 µM) | relative viability (Alisertib + Crizotinib; first compound 0.01581 µM) | relative viability (Alisertib + Crizotinib; first compound 0.05 µM) | relative viability (Alisertib + Crizotinib; first compound 0.1581 µM) | relative viability (Alisertib + Crizotinib; first compound 0.5 µM)
1 | NCI-H2228 | 0.829 | 0.672 | 0.564 | 0.0729 | 0.0587 | 0.322 | 0.19 | 0.147 | 0.132 | 0.109 | 0.544 | 0.671 | 0.373 | 0.0949 | 0.104 | 0.686 | 0.406 | 0.301 | 0.168 | 0.188
2 | COR-L23 | 0.921 | 0.965 | 0.576 | 0.198 | 0.105 | 0.439 | 0.213 | 0.119 | 0.124 | 0.114 | 0.347 | 0.35 | 0.151 | 0.09 | 0.0909 | 0.571 | 0.48 | 0.17 | 0.151 | 0.102
3 | NCI-H727 | 0.389 | 0.477 | 0.183 | 0.166 | 0.152 | 0.411 | 0.598 | 0.486 | 0.494 | 0.404 | 1.19 | 0.986 | 0.939 | 0.471 | 0.561 | 0.691 | 0.675 | 0.361 | 0.315 | 0.267
4 | NCI-H1993 | 1.12 | 1.04 | 0.463 | 0.499 | 0.542 | 0.572 | 0.542 | 0.536 | 0.524 | 0.512 | 0.63 | 0.436 | 0.395 | 0.372 | 0.339 | 0.564 | 0.744 | 0.6 | 0.573 | 0.527
5 | NCI-H1437 | 1.02 | 0.892 | 0.498 | 0.282 | 0.144 | 0.38 | 0.372 | 0.297 | 0.269 | 0.195 | 0.774 | 0.606 | 0.42 | 0.283 | 0.213 | 0.855 | 0.878 | 0.45 | 0.338 | 0.141
6 | NCI-H596 |  | 0.906 | 1.07 | 0.808 | 0.199 | 0.825 | 0.878 | 0.779 | 0.592 | 0.314 | 0.514 | 0.655 | 0.616 | 0.488 | 0.311 |  | 0.882 | 0.882 | 0.719 | 0.504
7 | 201T | 1.25 | 1.19 | 1.21 | 1.07 | 0.425 | 0.899 | 0.681 | 0.579 | 0.407 | 0.354 | 0.927 | 0.881 | 0.913 | 0.414 | 0.333 | 0.982 | 0.992 | 0.938 | 0.809 | 0.418
8 | ChaGo-K-1 | 1.01 | 0.8 | 0.313 | 0.286 | 0.239 | 0.228 | 0.213 | 0.194 | 0.207 | 0.198 | 0.653 | 0.643 | 0.24 | 0.207 | 0.161 | 1.08 | 0.849 | 0.366 | 0.344 | 0.317
9 | NCI-H1650 | 0.967 | 0.613 | 0.286 | 0.145 | 0.131 | 0.46 | 0.394 | 0.2 | 0.246 | 0.202 | 0.57 | 0.488 | 0.388 | 0.176 | 0.185 | 0.975 | 0.71 | 0.359 | 0.255 | 0.276
10 | LOU-NH91 | 0.79 | 0.731 | 0.551 | 0.326 | 0.271 | 0.656 | 0.652 | 0.47 | 0.364 | 0.337 | 0.834 | 0.821 | 0.602 | 0.422 | 0.371 | 0.76 | 0.705 | 0.494 | 0.463 | 0.424
11 | HOP-62 | 0.966 | 0.919 | 0.214 | 0.139 | 0.0669 | 0.339 | 0.275 | 0.204 | 0.24 | 0.203 | 0.497 | 0.443 | 0.174 | 0.102 | 0.138 | 0.833 | 0.743 | 0.232 | 0.212 | 0.104
12 | NCI-H1915 | 0.686 | 0.577 | 0.275 | 0.235 | 0.13 | 0.404 | 0.272 | 0.241 | 0.193 | 0.179 | 0.496 | 0.473 | 0.374 | 0.206 | 0.161 | 0.777 | 0.721 | 0.307 | 0.317 | 0.192
13 | NCI-H3122 | 1.04 | 0.992 | 0.664 | 0.592 | 0.237 | 0.384 | 0.315 | 0.235 | 0.27 | 0.191 | 0.891 | 0.79 | 0.799 | 0.282 | 0.186 | 0.244 | 0.306 | 0.217 | 0.218 | 0.191
14 | NCI-H1651 | 1.01 | 0.832 | 0.517 | 0.14 | 0.2 | 0.492 | 0.617 | 0.273 | 0.269 | 0.205 | 0.517 | 0.461 | 0.325 | 0.118 | 0.135 | 0.898 | 0.807 | 0.41 | 0.204 | 0.256
15 | PC-14 | 0.924 | 0.881 | 0.663 | 0.362 | 0.0849 | 0.566 | 0.492 | 0.26 | 0.0568 | 0.06 | 0.627 | 0.63 | 0.367 | 0.0643 | 0.0761 | 0.845 | 0.877 | 0.654 | 0.145 | 0.112
16 | NCI-H647 | 1.05 | 1.06 | 0.293 | 0.169 | 0.0658 | 0.345 | 0.261 | 0.125 | 0.152 | 0.101 | 0.49 | 0.156 | 0.106 | 0.112 | 0.0745 | 0.91 | 0.625 | 0.241 | 0.193 | 0.109
